Assay results taken from patent publication US12102607B2, “C5aR inhibitors for use in the treatment of chemotherapy-induced iatrogenic pain” (Dompe' Farmaceutici S.P.A., priority 2017, dated 2024).

Tests used:
[1] = system: chemotherapy-induced iatrogenic pain (CIIP) in male Balb/C mice; test: CIIP model (paclitaxel), mechanical threshold with von Frey filaments, DF2593A; type: in vivo
Procedure: (§1) The experiments were performed in male Balb/c wild type (WT) and in C5aR deficient (C5aR^−/−) mice (6-8 weeks age). For the experiments with DF2593A, animals were housed in the animal care facility of the Ribeirao Preto Medical School, University of Sao Paulo, in plastic cages at 20° C.±1° C. with water and food ad libitum and controlled light/dark cycle. When done oral acute treatment, animals were kept without food for 2-4 hours. Animals were taken to the testing room at least 1 h before experiments and were used only once. Animal care and handling procedures were in accordance with the International Association for the Study of Pain guidelines and with the control of Animal Ethic Committee from Ribeirao Preto Medical School, protocol 120/2014.
(§2) The protocol used was performed according POLOMANO et al., 2001, adapted to mice. The animals received paclitaxel 4 mg/kg intraperitoneally (i.p.) for four alternate days (days 1, 3, 5, and 7). During treatment period, mechanical and cold allodynia were measured 4 hours after the injection of paclitaxel.
(§3) DF2593A was orally given in dose of 1 mg/kg at 8 and 14th days after first paclitaxel injection. The effect of drug was evaluated 2, 4, 6 and 24 hours after administration.
(§4) DF2593A was given orally in a dose of 1 mg/kg, 12 in 12 hours, for 7 days during the induction phase of CIIP. On days 1, 3 5 and 7, the administration of DF2593A was 1 hour before paclitaxel.
(§5) DF2593A in doses of 10, 30 or 100 μg/5 μL was injected at 8 and 14th days after the first injection of paclitaxel (CIIP).
(§6) In DF2593A experiments, mechanical hyperalgesia was tested using von Frey filaments. Mice were placed in acrylic cages (12×10×17 cm) with wire grid floors in a quiet room 15-30 minutes before the start of testing. A crescent series of filaments were applied on right paw of CIIP mice. The lower filament able to elicit flinching movements was recorded as the mechanical threshold. The animals were tested before and after treatments and the results are expressed as log of mechanical threshold.

[2] = system: chemotherapy-induced iatrogenic pain (CIIP) in male Balb/C mice; test: CIIP model (paclitaxel), cold response acetone test, DF2593A; type: in vivo
Procedure: as §1, §2, §3, §4, §5
In the same apparatus of von Frey test, and nearly 15 minutes after the mechanical test, was performed the acetone test. With a 1 mL syringe, one drop (50 μL) of pure acetone was released allowing the spreading of liquid for the both paw surfaces (dorsal and plantar). All movements as licking, flinching or lifting of paw were recorded with a chronometer in a total testing time of 2 minutes.

[3] = system: acetylated α-Tubulin; test: In-cell western analysis of acetylated α-Tubulin in DRG neurons; type: cell-based, Sprague Dawley rat; conditions: for Acetylated α-Tubulin (% of UT): DRG neurons
Procedure: (§7) Dorsal Root Ganglion neurons were obtained by dissociation of post natal (P2) Sprague Dawley rat ganglia (Envigo, Bresso Italy), following well-defined protocols (O'Meara et al, 2011; Owen et al, 2012). To minimize introduction of contaminating cells into the culture, any excessively long roots were trimmed from DRGs. After the isolation, DRGs were enzymatically dissociated as follows: • 20 minutes of 1.5 mg/ml papain exposure at 37° C., • 30 minutes of 4 mg/ml collagenase exposure at 37° C.
(§8) Subsequently, cells were mechanically dissociated with a fire polished glass Pasteur pipette, in order to obtain a single cell suspension.
(§9) Once dissociation was achieved, cells were seeded onto 96 black multiwell plates coated with Laminin (10 ug/mL, overnight at Room Temperature, RT) at selected densities. Following 1 week of incubation in DMEM high glucose medium supplemented with 10% FBS, 1× N2, 1× B27, 100 IU/mI penicillin, […] streptomycin, cells were treated according to experimental needs.
Dorsal Root Ganglion neurons isolated as previously reported were subjected to the following experimental challenge scheme as depicted in FIG. 10.
Paclitaxel, C5a and drugs were administered 24 hr prior the in-cell western experiment. Following 24 hr of treatment with appropriate stimuli as previously indicated, cells were washed with 1×PBS and fixed with 3,7% formaldehyde for 15 min. After the removal of fixing solution, cells were washed with 1×PBS and permeabilized with 1×PBS-0,1% Triton X-100 for 5 min at RT. Cells were then stained over night at 4° C. with the anti-acetylated α-Tubulin antibody, diluted 1:500 in Odyssey Blocking buffer, following manufacturer's protocol.
The next day, cells were washed with 1×PBS-0.1% Tween20, and stained with the secondary antibody (diluted 1:800 in Odyssey Blocking buffer, as recommended by the protocol) and with the CellTag 700Stain […]. To lower the background, Tween20 at a final concentration of 0.2% was added to the Odyssey Blocking buffer. 96-well plates were then read at Odyssey CLx Imaging system and images acquired. Data analysis was carried out by the use of Image Studio 2.1 software.
Paclitaxel was given to the DRG neurons following 7 days of culture at the concentration of 200 nM (Scuteri et al. 2006).
Effect of DF3966Y in C5α-induced neuronal toxicity In order to determine whether the observed effects may be triggered also by C5a, recombinant mouse C5a 1 μg/ml (111.11 nM) was given to the DRG neurons after 7 days of culture in presence or absence of DF3966Y 1 μM.
After 24 hr of incubation, acetylated α-Tubulin was quantified using in-cell western technique, as previously described.

[4] = system: male Balb/C mice; test: Intrathecal injection of recombinant C5a, mechanical threshold (von Frey hair test); type: in vivo
Procedure: as §1
(§10) Recombinant mouse C5a was given by intrathecal way, in a volume of 5 μL, and its effect follows for 1, 3, 5, 7 and 24 hours after injection.
as §6

[5] = system: male Balb/C mice; test: Intrathecal injection of recombinant C5a, thermal threshold (Hargreaves test); type: in vivo; conditions: higher doses, between 5 and 7 hours after injection
Procedure: as §1, §10
Hargreaves test was performed as previous described (HARGREAVES et al., 1988). The animals were habituated on a glass surface with controlled temperature, which allow the homogeneous delivery of infrared light on the paw. After the activation of the light source, a chronometer was turned on. A crescent temperature reached the paw and the chronometer was turned off as soon as the animal did a withdraw movement out the light. The time recorded was considered the heat latency. […]

[6] = system: DRG neurons; test: Cells number of DRG neurons (immunofluorescence, image analysis); type: cell-based
Procedure: as §7, §8, §9
(§11) Alpha Tubulin Acetylation DRG-derived neurons were cultured for 7 days and then treated with:
(§12) • paclitaxel (200 nM, 500 nM, 1 μM and 5 μM, 20 μM) in presence or absence of DF3966Y (0.1, 1 and 10 μM) or DF2593A (0.1, 1 and 10 μM) • or C5a (500 ng/ml and 1 μg/ml) in presence or absence of DF3966Y (1 μM)
(§13) After 24 hr of treatment, cells were stained by immunofluorescence.
(§14) Cells were fixed with saccharose-paraformaldehyde then staining was performed overnight. Primary antibodies (anti—Ill Tubulin and anti-synaptotagmin 1) were diluted 1:500 in 1×PBS-4% BSA-2% Normal goat serum and 0.3% Triton x-100. The next day, cells were washed with 1×PBS-4% BSA and secondary antibodies were used diluted 1:500 in 1×PBS-4% BSA-2% Normal goat serum and 0.3% Triton x-100. After 1 hr of incubation, cells were washed with 1×PBS. Hoechst was used as a counterstain.
(§15) Sixteen images per well were taken with ArrayScan XTI HCA Reader (Thermo Fisher Scientific) with and 40× objective. All the analysis were done with HCS Studio software
(§16) Cells number, synapse number and dentritic arborization were evaluated in untreated cells and in cells stimulated with paclitaxel and C5a alone or in presence of the drug. As marker of chemotherapy-induced toxicity, the total number of synapses on DRG neurons was quantitative evaluated as percentage of the number of synapse with respect to untreated (UT) control.
(§17) Data are obtained as the sum of the values obtained by the analysis of sixteen fields per well for each experiment. Percentage of the values in respect to the relative mean untreated group was calculated. Mean of the percentages from 4 separate experiments was plotted in the following Tables 2-7.

[7] = system: DRG neurons; test: Synapse number on DRG neurons (synaptotagmin staining, image analysis); type: cell-based, Sprague Dawley rat
Procedure: as §7, §8, §9, §11, §12, §13, §14, §15
For synapse count a threshold has been set, in particular all the objects, positive to synaptotagmin staining, in the range 0.365-2.457 μm^2 have been considered as synapses.
as §16, §17

[8] = system: DRG neurons; test: Dendritic tree area of DRG neurons (image analysis); type: cell-based, Sprague Dawley rat; conditions: C5a alone (Table 7), relative to UT
Procedure: as §7, §8, §9, §11, §12, §13, §14, §15
Dendritic arborization directly influences synaptic genesis and input. A well-developed arborization indicates a functional synaptic network. For this reason, the area occupied by dendritic arborization has been quantified.
as §17

[9] = system: DRG neurons; test: Electrophysiological recordings (whole-cell patch-clamp, current-clamp) of DRG-derived neurons; type: cell-based, Sprague Dawley rat; conditions: 1 μg/ml C5a alone
Procedure: as §7
Dorsal Root Gangliar (DRG)-derived neurons were cultured for 7 days and then treated in blind with the following combinations: 10 nM Paclitaxel, 10 nM Paclitaxel+1 μM DF3966Y, 1 μg/ml C5a, 1 μg/ml C5a+1 μM DF3966Y.
The compounds were administered for 1 min 30 sec (short acute stimulation) or 5 minutes (long chronic stimulation). The application of the compounds was followed by a wash-out in the physiological control solution for an equivalent time (about 10 min).
Electrophysiological recordings were performed by the patch-clamp technique in the whole-cell configuration. The standard extracellr solution was bath applied and contained the following (mM): NaCl 135, KCl 2, CaCl2 2, MgCl2 2, hepes 10, glucose 5, pH 7.4. The standard pipet solution contained the following (mM): potassium aspartate 130, NaCl 10, MgCl2 2, CaCl2 1.3, EGTA 10, Hepes 10, pH 7.3. Recordings were acquired by the pClamp8.2 software and the MultiClamp 700A amplifier (Axon Instruments), in current-clamp mode.

[10] = 1 mg/kg oral, 8th and 14th day of CIIP, 2 until 6 hours after administration
[11] = 1 mg/kg p.o. 12/12 hours for 7 days during induction phase of CIIP, 1 hour before paclitaxel
[12] = 10, 30 or 100 μg/5 μL intrathecal, established CIIP (8 and 14th day)

C[C@@H](NC(=O)CCCN1CCCCC1)c1ccc(OS(=O)(=O)C(F)(F)F)cc1 [DF2593A, N-[(1R)-1-(4-trifluoromethanesulfonyloxy)phenylethyl]-4-piperidin-1-ylbutanamide]
efficacy of the lowest intrathecal dose ([1]; 10 μg/5 μL intrathecal, 8th day): still statistically significant
mechanical hypersensitivity, acute oral post treatment [1, 10]: able to reduce the mechanical hypersensitivity
duration of reduction of mechanical and cold hypersensitivity after administration ([1]; 1 mg/kg oral, established pain condition): at least 6 hours
development of mechanical nociceptive response, chronic pre treatment [1, 11]: prevents the development
mechanical allodynia, intrathecal treatment [1, 12]: improves mechanical and cold allodynia
effect on mechanical and cold response 24 hours after the last dose ([1]; chronic 1 mg/kg p.o., 24 hours after the last DF2593A dose): no effect is observed
cold response, acute oral post treatment [2, 10]: is reduce after DF2593A treatment
development of cold nociceptive response, chronic pre treatment [2, 11]: prevents the development
cold allodynia, intrathecal treatment [2, 12]: improves mechanical and cold allodynia
Acetylated α-Tubulin (% of UT) ([3]; drug 0.1 μM under Paclitaxel 200 nM, 24 hr): 107.38 % of UT
reversal of Paclitaxel-induced increase in acetylated α-Tubulin ([3]; drug 0.1 μM, Paclitaxel 200 nM): not able to revert
Acetylated α-Tubulin (% of UT) ([3]; drug 1 μM under Paclitaxel 200 nM, 24 hr): 100.67 % of UT
reversal of Paclitaxel-induced increase in acetylated α-Tubulin ([3]; drug 1 μM, Paclitaxel 200 nM): reverted the Paclitaxel-induced challenge
Acetylated α-Tubulin (% of UT) ([3]; drug 10 μM under Paclitaxel 200 nM, 24 hr): 70.72 % of UT
reduction in acetylated α-Tubulin with respect to control (UT) cells ([3]; drug 10 μM, Paclitaxel 200 nM): about 25%

B1: C5a: recombinant mouse C5a, complement peptide fragment, purchased from R&D (protein, UniProt P06684 679-755, looked up)
C5a anaphylatoxin: NLHLLRQKIEEQAAKYKHSVPKKCCYDGARVNFYETCEERVARVTIGPLCIRAFNECCTIANKIRKESPHKPVQLGR
modifications: C5a anaphylatoxin
notes: recombinant mouse C5a, complement peptide fragment, purchased from R&D
mechanical threshold after intrathecal C5a ([4]; 100, 300 and 600 ng/5 μL intrathecal, mice, up to 24 hours after injection): promoted reduction of mechanical threshold in a dose-dependent manner
C5a pro-nociceptive effect in C5aR−/− mice ([4]; intrathecal C5a, C5aR−/− mice): abrogated
heat latency after intrathecal C5a [5]: caused a decrease in heat latency
levels of acetylated α-Tubulin under C5a ([3]; C5a 1 μg/ml alone, 24 hr): able to increase the levels of acetylated α-Tubulin
% of cell number ([6]; C5a alone (Table 3), relative to UT): 98.69 ± 4.22%
neuronal death ([6]; C5a alone or in combination with DF3966Y 1 μM): did not induce neuronal death
neuronal activity damage (synapse number) ([7]; C5a alone): did not induce neuronal activity damage
% of synapse number ([7]; C5a alone (Table 5), relative to UT): 116.90 ± 17.43%
% dendritic tree area [8]: 102.68 ± 9.48%
increase of the firing rate, immediate ([9]; immediate): +55.61%
reduction of electrical activity, longer times of exposure ([9]; longer times of exposure): about 70%
